The source of these data is patent publication US20250042897A1, “HETEROCYCLIC COMPOUNDS AS TRIGGERING RECEPTOR EXPRESSED ON MYELOID CELLS 2 AGONISTS AND METHODS OF USE” (Vigil Neuroscience, Inc., priority 2021, published 2025).

T1 sequence (Q9NZC2 19-230): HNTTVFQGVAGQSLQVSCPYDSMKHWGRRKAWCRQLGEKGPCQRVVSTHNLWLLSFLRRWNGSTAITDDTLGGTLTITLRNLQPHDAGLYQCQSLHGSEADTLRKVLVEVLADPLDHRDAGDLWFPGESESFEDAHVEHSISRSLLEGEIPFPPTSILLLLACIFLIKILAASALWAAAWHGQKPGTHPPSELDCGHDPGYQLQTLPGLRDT
T1 sequence (O43914 22-113 partner): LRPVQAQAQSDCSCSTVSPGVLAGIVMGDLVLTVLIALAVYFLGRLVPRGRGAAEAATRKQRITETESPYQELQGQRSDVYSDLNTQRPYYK

The assay concerns the target T1, human TREM2 (Homo sapiens, UniProt Q9NZC2).
T1 construct: expressed in transfected cells; host or cells: HEK293T
Put plainly: hTREM2 agonist potency by cellular Syk phosphorylation (AlphaLisa) in HEK293T-hTREM2 cells. The class given is cell-based. The conditions noted are these: Table D-2; HEK293 cells expressing human TREM2 and DAP12; pSyk AlphaLisa; 45 minutes at room temperature. On the procedure:
In Vitro Measurement of Triggering Receptor Expressed on Myeloid Cells 2 Activity Using Cellular Phosphorylation of Spleen Tyrosine Kinase (“Syk”) Assays
Measurement of TREM2 agonist potency was done using a HEK cell line expressing human TREM2 and DAP12 (HEK293T-hTREM2 cells). Binding of small molecules to, and activation of, TREM2 increases the phosphorylation of Syk. The resultant levels of Syk phosphorylation are measured using a commercial AlphaLisa reagent kit. To perform the assay, HEK-hTREM2 cells were plated at 14,000 cells per well in a 384 well plate, in 25 μL of complete growth media and incubated at 37° C., 5% CO2 for 20-24 hours.
Prior to the assay, test compounds were diluted in the 384 well plates in assay buffer and allowed to equilibrate for 30 minutes. Growth media was removed from cell plates by inversion on blotting paper, and 25 μL of test articles in assay buffer was added to cells. Cells were incubated for 45 minutes at room temperature. After 45 minutes, assay buffer was removed and 10 μL of lysis buffer was added. Plates were shaken for 20 minutes at 350 RPM at room temperature. After complete lysis, AlphaLisa reagents were added to the lysate, and fluorescence intensity was measured using a Perkin Elmer Envision plate reader. Intensities were used to generate a standard curve, and % activation was calculated. Curve fitting was performed using Prism v9 software, log (agonist) vs response-variable slope (four parameters), and EC50s were calculated from the curve fit.
The results presented in Table D have been generated with the in vitro assay described above. This assay may be used to test any of the compounds described herein to assess and characterize a compound's ability to act as an agonist of TREM2.
(In general: Bead proximity is the source of the signal in Alpha formats.)
Broadly, the EC50 is the concentration giving half of the maximal effect. Low values mean an effect from little substance, high ones a need for much substance. As for `Cc1nc2nc([C@H]3CCO[C@@H](c4cnn(C5CC5)c4)C3)cc(-c3ccc(F)cc3F)c2c(=O)n1C` (single isomer, unassigned) [I-40], the EC50 is at most 50 nM. The result for `Cc1nc2nc([C@@H]3CCO[C@H](c4cnn(C5CC5)c4)C3)cc(-c3ccc(F)cc3F)c2c(=O)n1C` (single isomer, unassigned) [I-42] reads 500 to 3000 nM; that for `Cn1ncc2c(-c3ccc(Cl)cc3F)nc(N3C[C@@H](C4CC4)O[C@@H](c4cnn(C5CC5)c4)C3)nc2c1=O` (single isomer, unassigned) [I-183], at most 50 nM; that for `Cn1ncc2c(-c3ccc(Cl)cc3F)nc(N3C[C@@H](c4cnn(C5CC5)c4)O[C@@H](C4CC4)C3)nc2c1=O` (single isomer, unassigned) [I-184], at most 50 nM. For `Cn1ncc2c(-c3ccc(Cl)cc3F)nc(N3CCOC(c4cnn(C5CC5)c4)C3)cc2c1=O` (stereo not shown) [I-45, 5-(4-chloro-2-fluorophenyl)-7-(2-(1-cyclopropyl-1H-pyrazol-4-yl)morpholino)-2-methylpyrido[3,4-d]pyridazin-1 (2H)-one], the 50% effective concentration (EC50) was 50 to 500 nM. For `Cn1ncc2c(-c3ccc(Cl)cc3F)nc([C@H]3CCO[C@@H](c4cnn(C5CC5)c4)C3)cc2c1=O` [I-48, 5-(4-chloro-2-fluoro-phenyl)-7-[(2R,4S)-2-(1-cyclopropylpyrazol-4-yl)tetrahydropyran-4-yl]-2-methyl-pyrido[3,4-d]pyridazin-1-one] the value was at most 50 nM; for `Cn1ncc2c(-c3ccc(C(F)(F)F)cc3F)nc([C@H]3CCO[C@@H](c4cnn(C5CC5)c4)C3)cc2c1=O` [I-53, 7-[(2R, 4S)-2-(1-cyclopropylpyrazol-4-yl)tetrahydropyran-4-yl]-5-[2-fluoro-4-(trifluoroomethyl)phenyl]-2-methyl-pyrido[3,4-d]pyridazin-1-one], 50 to 500 nM. The result for `C[C@@H]1CN(c2cc3c(=O)n(C)ncc3c(-c3ccc(F)cc3F)n2)C[C@H](c2cnn(C3CC3)c2)O1` [I-58, 7-[(2S,6R)-2-(1-cyclopropylpyrazol-4-yl)-6-methyl-morpholin-4-yl]-5-(2,4-difluorophenyl)-2-methyl-pyrido[3,4-d]pyridazin-1-one] reads at most 50 nM; that for `Cn1ncc2c(-c3ccc(F)cc3F)nc(C3CCO[C@@H](c4cnn(C5CC5)c4)C3)cc2c1=O` (stereo partly drawn) [I-63, 7-[(2R)-2-(1-cyclopropylpyrazol-4-yl)tetrahydropyran-4-yl]-5-(2,4-difluorophenyl)-2-methyl-pyrido[3,4-d]pyridazin-1-one], 50 to 500 nM; that for `Cc1cc2c(-c3ccc(C(F)(F)F)cc3F)nc(N3C[C@@H](C)O[C@@H](c4cnn(C5CC5)c4)C3)cc2c(=O)n1C` [I-79, 7-((2S,6R)-2-(1-cyclopropyl-1H-pyrazol-4-yl)-6-methylmorpholino)-5-(2-fluoro-4-(trifluoromethyl)phenyl)-2,3-dimethyl-2,6-naphthyridin-1 (2H)-one], at most 50 nM. For `Cn1ncc2c(-c3ccc(C(F)(F)F)cc3F)nc(C3CCO[C@@H](c4cnn(C5CC5)c4)C3)nc2c1=O` (stereo partly drawn) [I-84, 2-((2R)-2-(1-cyclopropyl-1H-pyrazol-4-yl)tetrahydro-2H-pyran-4-yl)-4-(2-fluoro-4-(trifluoromethyl)phenyl)-7-methylpyrimido[4,5-d]pyridazin-8 (7H)-one] the value was 50 to 500 nM. `Cc1nc2c(-c3ccc(F)cc3F)nc(N3C[C@@H](C)O[C@@H](c4cnn(C5CC5)c4)C3)nc2c(=O)n1C` [I-90, 6-((2S,6R)-2-(1-cyclopropyl-1H-pyrazol-4-yl)-6-methylmorpholino)-8-(2,4-difluorophenyl)-2,3-dimethylpyrimido[5,4-d]pyrimidin-4 (3H)-one] came in with an EC50 of at most 50 nM. In turn, `Cc1cc2c(-c3ccc(C(F)(F)F)cc3F)nc([C@H]3CCO[C@@H](c4cnn(C5CC5)c4)C3)cc2c(=O)n1C` [I-95, 7-((2R,4S)-2-(1-cyclopropyl-1H-pyrazol-4-yl)tetrahydro-2H-pyran-4-yl)-5-(2-fluoro-4-(trifluoromethyl)phenyl)-2,3-dimethyl-2,6-naphthyridin-1 (2H)-one] yielded an EC50 of at most 50 nM.
